Experimental data from ChEMBL document CHEMBL1156305 (Bioorg Med Chem Lett, 2010).
The source made the active and inactive calls. The calls are words filed in the database; no cut-off is given here.

Tests used:
[1] = biological target: T1, 5-hydroxytryptamine receptor 2B (Homo sapiens, UniProt P41595); experiment: Binding affinity to 5HT2B receptor
[2] = biological target: T2, 5-hydroxytryptamine receptor 2C (Homo sapiens, UniProt P28335); experiment: Binding affinity to 5HT2C receptor
T2 sequence (P28335 whole entry): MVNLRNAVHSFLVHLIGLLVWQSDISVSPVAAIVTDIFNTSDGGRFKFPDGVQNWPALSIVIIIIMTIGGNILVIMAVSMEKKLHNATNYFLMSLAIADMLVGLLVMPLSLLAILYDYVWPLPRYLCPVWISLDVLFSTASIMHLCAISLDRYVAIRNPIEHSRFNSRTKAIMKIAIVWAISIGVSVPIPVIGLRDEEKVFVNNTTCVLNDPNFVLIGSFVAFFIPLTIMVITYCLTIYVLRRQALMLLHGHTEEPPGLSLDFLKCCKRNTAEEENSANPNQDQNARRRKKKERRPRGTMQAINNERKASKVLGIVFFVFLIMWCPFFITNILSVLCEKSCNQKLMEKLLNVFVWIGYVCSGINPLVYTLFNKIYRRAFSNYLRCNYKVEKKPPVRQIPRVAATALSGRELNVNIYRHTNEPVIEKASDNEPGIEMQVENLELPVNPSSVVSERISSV

[3] = biological target: T3, 5-hydroxytryptamine receptor 2A (Homo sapiens, UniProt P28223); experiment: Agonist activity at 5HT2A receptor; format: functional
T3 sequence (P28223 whole entry): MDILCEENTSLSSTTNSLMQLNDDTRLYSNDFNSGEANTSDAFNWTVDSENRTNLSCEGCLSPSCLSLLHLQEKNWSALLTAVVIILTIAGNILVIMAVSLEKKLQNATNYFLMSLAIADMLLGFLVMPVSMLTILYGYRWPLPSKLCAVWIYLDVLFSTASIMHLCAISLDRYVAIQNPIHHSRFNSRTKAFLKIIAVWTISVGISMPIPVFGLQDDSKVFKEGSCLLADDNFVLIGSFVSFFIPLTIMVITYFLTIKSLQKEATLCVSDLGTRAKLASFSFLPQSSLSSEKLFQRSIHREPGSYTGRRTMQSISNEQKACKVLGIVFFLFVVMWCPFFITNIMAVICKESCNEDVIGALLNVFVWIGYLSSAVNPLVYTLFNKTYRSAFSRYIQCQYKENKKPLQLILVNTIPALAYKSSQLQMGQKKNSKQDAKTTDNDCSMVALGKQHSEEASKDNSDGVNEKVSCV

Rattus norvegicus [4] = experiment: Inhibition of spontaneous nocturnal food intake in po dosed Sprague-Dawley rat measured up to 25 hrs; format: functional, organism-based
[5] = biological target: T2, 5-hydroxytryptamine receptor 2C; experiment: Agonist activity at 5HT2C receptor; format: functional
[6] = Ratio of free drug level in brain to plasma in Sprague-Dawley rat; format: ADME, cell-free; settings: brain and plasma
[7] = biological target: T3, 5-hydroxytryptamine receptor 2A; experiment: Agonist activity at 5HT2A receptor relative to control; format: functional
[8] = Selectivity ratio of Ki for 5HT2B receptor to Ki for 5HT2C receptor
[9] = Half life in human hepatocytes; format: ADME, cell-based, Liver, Hepatocyte
Rattus norvegicus [10] = experiment: Inhibition of spontaneous nocturnal food intake in po dosed Sprague-Dawley rat measured up to 840 mins; format: functional, organism-based
[11] = Ratio of total drug level in brain to plasma in Sprague-Dawley rat; format: ADME, cell-free; settings: brain and plasma
[12] = biological target: T1, 5-hydroxytryptamine receptor 2B; experiment: Agonist activity at 5HT2B receptor; format: functional
Plasma = experiment: Fraction unbound in Sprague-Dawley rat plasma; format: ADME, cell-free
[13] = Half life in human liver microsomes; format: ADME, Microsome
[14] = Bioavailability in dog; format: ADME, organism-based, Canis lupus familiaris; settings: in vivo
Macaca mulatta = organism: Macaca mulatta; experiment: Activity at MAPK in monkey heart valve […] cells
[15] = biological target: T3, 5-hydroxytryptamine receptor 2A; experiment: Binding affinity to 5HT2A receptor
[16] = Bioavailability in rat; format: ADME, organism-based; settings: in vivo
[17] = Ratio of drug level in RBC to plasma in Sprague-Dawley rat; format: ADME; settings: in vivo
[18] = biological target: T4, 5-hydroxytryptamine receptor 2C (Homo sapiens) (UniProt P28335); experiment: Agonist activity at 5HT2C receptor relative to control; format: functional; design: concentration or dose not given beside the values
T4 sequence (whole entry): T2 sequence (P28335 whole entry)

Rattus norvegicus [19] = organism: Rattus norvegicus; experiment: Effect on 5HT2A receptor-mediated head twitches in rat; format: functional, organism-based
Rattus norvegicus [20] = organism: Rattus norvegicus; experiment: Ex vivo agonist activity at 5HT2B receptor in rat stomach fundus; format: functional, organism-based

T1 sequence (P41595 whole entry): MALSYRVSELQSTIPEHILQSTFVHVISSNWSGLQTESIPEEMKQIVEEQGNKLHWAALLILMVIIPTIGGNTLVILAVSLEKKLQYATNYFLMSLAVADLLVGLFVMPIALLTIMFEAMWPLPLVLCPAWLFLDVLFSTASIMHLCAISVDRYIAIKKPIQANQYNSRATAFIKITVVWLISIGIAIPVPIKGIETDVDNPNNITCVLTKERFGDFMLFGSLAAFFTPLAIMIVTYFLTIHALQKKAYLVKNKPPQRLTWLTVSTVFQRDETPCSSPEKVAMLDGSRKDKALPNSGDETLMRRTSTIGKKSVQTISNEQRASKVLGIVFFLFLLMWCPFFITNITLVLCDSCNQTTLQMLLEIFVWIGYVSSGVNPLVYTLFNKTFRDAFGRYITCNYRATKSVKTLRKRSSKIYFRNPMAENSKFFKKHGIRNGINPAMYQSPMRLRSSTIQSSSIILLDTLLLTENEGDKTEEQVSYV

Structure (SMILES)	Ki ([1]; read-out: Ki) [nM]	Ki [2] [nM]	EC50 [5] [nM]	Activity [18] [%]	further results
Cc1noc(C)c1COc1cc(F)c(COC(=O)N2[C@H](C)CNC[C@@H]2C)c(F)c1	> 10000	43	–	–	–
COc1cc(OC2CCC(C)(C)CC2)c(F)cc1CNC(=O)[C@@H]1CCCN1	3940	0.9	2.3	95	EC50 [3]: 440 nM; Activity (Rattus norvegicus [4]): Dose-dependent effect; Kp uu [6]: 0.4; Activity [7]: 76%; Ratio Ki [8]: 10000; half-life [9]: 7.33 h; Activity (Rattus norvegicus [10]): Dose-dependent effect; Kp [11]: 10; EC50 [12]: > 10000 nM; fraction unbound (Plasma): 3.6%; half-life [13]: 1.67 h; bioavailability [14]: 5.5%; Activity (Macaca mulatta): inactive; Ki ([15]; read-out: Ki): 12.8 nM; bioavailability [16]: 5.5%; Ratio [17]: 0.7; Activity (Rattus norvegicus [19]): inactive; Activity (Rattus norvegicus [20]): inactive
O=C(NCc1ccc(C2CCCCC2)cc1)[C@@H]1CCCN1	4120	4.4	88	53	–
O=C(NCc1ccc(-c2ccc(Cl)cc2)cc1F)N1CCNCC1	3500	4	–	–	–
O=C(NCc1ccc(OC(F)(F)F)cc1)[C@@H]1CCCN1	> 10000	324	–	–	Ratio Ki [8]: > 1000
C[C@H]1CC[C@@H](Oc2c(F)cc(CNC(=O)[C@@H]3CCCN3)cc2F)CC1	–	25	44	46	EC50 [3]: 153 nM; EC50 [12]: > 10000 nM; Ki [15]: Not Active; Ki [1]: Not Active

Second part, led by results:

Ki ([1]; read-out: Ki) [nM]	Ki [2] [nM]	EC50 [5] [nM]	Activity [18] [%]	Structure (SMILES)	further results
1720	20	73	40	O=C(NCc1ccc(OCc2ccccc2)cc1)[C@@H]1CCCN1	–
–	643	–	–	O=C(NCc1ccc(OC(F)(F)F)cc1)C1CCNC1 (centres undefined)	–
–	585	–	–	NCc1cccc(C(=O)NCc2ccc(OC(F)(F)F)cc2)c1	–
2400	23	38	46	O=C(NCc1ccc(Oc2cccc(F)c2)cc1)[C@@H]1CCCN1	–
–	1.7	4.97	85	COc1cc(OCC2CCCCC2)c(F)cc1CNC(=O)[C@@H]1CCCN1	EC50 [3]: 500 nM; EC50 [12]: 4030 nM; Ki [15]: Not Active; Ki [1]: Not Active
1670	1.8	1	88	CC1(C)CCC(Oc2cc(F)c(CNC(=O)[C@@H]3CCCN3)cc2F)CC1	EC50 [3]: 130 nM; Activity [7]: 98%; EC50 [12]: > 10000 nM; Ki ([15]; read-out: Ki): 13.7 nM
–	83	–	–	C[C@@H]1CNC[C@H](C)N1C(=O)OCc1ccccc1	–
–	8	183	65	O=C(NCc1ccc(-c2cc(Cl)cc(Cl)c2)cc1)[C@@H]1CCCN1	–
